Measured values published in US20210138012A1, “COMPOSITION FOR PREVENTING, AMELIORATING, OR TREATING RESPIRATORY DISEASE COMPRISING SIRAITIA GROSVENORII EXTRACT AS EFFECTIVE COMPONENT” (KOREA INSTITUTE OF ORIENTAL MEDICINE, priority 2018, published 2021).

Experiments:
[1] = test system: IL-4; assay: IL-4 production in BALF (ELISA), animal asthma model; type: in vivo, Balb/c mouse; conditions: OVA-10 mg/kg
Experimental: (§1) Test was carried out by using an animal model which has been induced to have bronchial asthma by ovalbumin (OVA). As for the test animal, a 7-week old male Balb/c mouse was obtained from Jackson Laboratory (Bar Harbor, Me., USA), and used for the test after acclimation for 1 week. […] On day 3 and day 10 after intraperitoneally administering the first OVA, 2 mg of OVA were administered to the mouse via intratracheal injection. Then, from day 21 onwards for 4 weeks, the mouse was allowed to inhale OVA for 30 minutes by using a ultrasonic sprayer (NE-U12, Omron Co., Tokyo, Japan) (week 1 to week 3; exposed to 1% OVA, week 4; exposed to 2% OVA). Forty-eight hours after the last exposure to OVA, blood was taken from the anesthetized mouse, which was then subjected to autopsy to have observation of a pathological change. […]
(§2) Production amount of interleukins (IL-4, IL-5, and IL-13) in BALF separated from each test animal was measured by a commercially available kit for enzyme-linked immunosorbent assay (ELISA) (R&D System, USA). Analysis of each cytokine was carried out according to the experimental method provided by the manufacturer, and the absorbance at 450 nm was measured using an ELISA reader.

[2] = test system: IL-5; assay: IL-5 production in BALF (ELISA), animal asthma model; type: in vivo, Balb/c mouse; conditions: OVA-10 mg/kg
Experimental: as §1, §2

[3] = test system: IL-13; assay: IL-13 production in BALF (ELISA), animal asthma model; type: in vivo, Balb/c mouse; conditions: OVA-10 mg/kg
Experimental: as §1, §2

[4] = test system: RANTES; assay: Inhibition of RANTES secretion in TNF-α-treated BEAS-2B cells (ELISA); type: cell-based; conditions: Homo sapiens, 10 ng/ml TNF-α, 24 hours, read-out: Inhibition rate (%) of RANTES secretion
Experimental: (§3) BEAS-2B cells (ATCC, USA), which are human bronchial epithelial cells, were cultured in Dulbecco's modified eagle medium (DMEM) added with fetal bovine serum (FBS) and penicillin-streptomycin (PS). BEAS-2B cells were cultured again for 18 hours in a 96-well plate (5×10^4 cells/well) containing DMEM 10% medium. The medium was subsequently removed and replaced with serum-free DMEM.
After that, to measure the secretion amount of RANTES, the cells were simultaneously treated with a test sample and TNF-α (10 ng/ml) and cultured for 24 hours. Secretion amount of RANTES present in cell supernatant was measured by using ELISA kit (R&D systems, USA) according to the manufacturer's protocol. As a positive control group, 0.1 μM dexamethasone was used.

[5] = test system: TARC; assay: Inhibition of TARC secretion in TNF-α + IFN-γ + IL-4-treated BEAS-2B cells (ELISA); type: cell-based; conditions: Homo sapiens, TNF-α + IFN-γ + IL-4, 24 hours, read-out: Inhibition rate (%) of TARC secretion
Experimental: as §3
Meanwhile, to measure the secretion amount of TARC, BEAS-2B cells were simultaneously treated with TNF-α (50 ng/ml), IFN-γ (10 ng/ml), and IL-4 (50 ng/ml), and, after culture for 24 hours, the measurement was made by using ELISA kit (R&D systems, USA).

[6] = test system: BEAS-2B pulmonary bronchial cells; assay: Cytotoxicity in BEAS-2B pulmonary bronchial cells using CCK-8; type: cell-based, human; conditions: 0.1 μM
Experimental: as §3

| SMILES | IL-4 [1] | IL-5 [2] | IL-13 [3] | inhibition at 0.1 µM [4] | inhibition at 0.1 µM [5] | Cell viability (%) [6] |
| --- | --- | --- | --- | --- | --- | --- |
| CC(C)(O)c1ccccc1CC[C@@H](SCC1(CC(=O)O)CC1)c1cccc(/C=C/c2ccc3ccc(Cl)cc3n2)c1 [Montelukast, montelukast] | 60.37 ± 12.05 pg/mL | 27.91 ± 8.61 pg/mL | 89.58 ± 9.46 pg/mL |  |  |  |
| C[C@@H]1C[C@H]2[C@@H]3CCC4=CC(=O)C=C[C@]4(C)[C@@]3(F)[C@@H](O)C[C@]2(C)[C@@]1(O)C(=O)CO [positive control group, dexamethasone] |  |  |  | 97.1 ± 12.9% | 28.4 ± 8.77% | 99.34 ± 0.14% |
